Assay results reported in patent US3940438A, “Crystalline racemic 9α,11α,15(S)-trihydroxy-5-cis,13-trans-prostadienoic acid” (priority 1973, dated 1976).
Values belong to the compound of their own block, whether it stands above or below them.

Experiments:
[1] = Storage at 25 °C with constant exposure to the air; format: physicochemical
Method: The figures also show the separation of PGF2α and its 15-epimer. […] In FIGS. 4, 4a and 4b, all injections represent 100 μg of PGF2α initial samples.

[2] = physchem
Method: A weighed sample was diluted with dioxane to produce a solution which was 10μg PGF2α /μl of solution. This solution was used to calibrate the response of the differential refractometer of a Waters Assoc. Model 100 high pressure liquid chromatograph (h.p.l.c.). The calibration appears in FIG. 1. FIG. 1, the PGF2α peak height conditions are as follows: column 4 feet ×0.125 inches o.d., column of Corasil -II. Solvent 0.2% HOAc/EtOAc wherein the former is acetic acid and the latter is ethyl acetate. Flow 0.9ml/min. Reaction times: dioxane front appears at […]. PGF2α at 14 min. from injection corresponding to column void volume after void volume displacement. The numbers on the x-axis are μg injected and the numbers along the y-axis indicate detector response in inches at peak heights.
Weighed samples, 0.5-1.0 mg. ± 0.03 mg, of PGF2α and crystalline racemic PGF2α were placed in 1 dram vials. These vials were randomly divided between storage at -20° C under argon and storage at 41 ± 2°, open to the air, in a sand bath. At stipulated times samples were removed from both types of storage, diluted to 10μg PGF2α /μl, and assayed by h.p.l.c. […] Individual assays of 41° C stored samples are collected in FIG. 2. […] The open symbols are for racemic PGF2α and the closed symbols are for nat. PGF2α. The different symbols are used to indicate different samples. Replicate analysis appear as multiple used of the same symbols at any one time. […] The numbers along the x-axis are days at 41 ± 2° C and along the y-axis are percents.
Since, prostaglandins, including the dienoics, are known to be unstable, as they undergo autoxidation on exposure to air. Methods of Biochemical Analysis, Vol. 17, pages 325 to 371, 1969, published by Interscience Publishers, New York.
FIGS. 3, 3a and 3b show the traces from rapid analysis, (at 1 ml/min.). […] In FIGS. 4, 4a and 4b, all injections represent 100 μg of PGF2α initial samples.

[3] = Storage at -20 °C under argon, h.p.l.c. assay; format: physicochemical; settings: samples taken at stipulated times
Method: Natural 9α,11α,15(S)-trihydroxy-5-cis,13-trans-prostadienoic acid, natural PGF2α, prepared from total synthesis was a soft, waxy semi-crystalline compound melting in the range of 25°-32°. […] The calibration appears in FIG. 1. FIG. 1, the PGF2α peak height conditions are as follows: column 4 feet ×0.125 inches o.d., column of Corasil -II. […] Flow 0.9ml/min. Reaction times: dioxane front appears at 30 min.
Weighed samples, 0.5-1.0 mg. ± 0.03 mg, of PGF2α and crystalline racemic PGF2α were placed in 1 dram vials. These vials were randomly divided between storage at -20° C under argon and storage at 41 ± 2°, open to the air, in a sand bath. […] In FIG. 2, the loss of PGF2α on storage open to air at 41 ± 2° C is set forth. […] PGF2α. The different symbols are used to indicate different samples. […] The numbers along the x-axis are days at 41 ± 2° C and along the y-axis are percents. The crystalline racemate assayed 103 ± 3% based on the natural compound.

extent of oxidation ([1]; in 17 days, stated for comparison ("would be")): over half oxidized in 17 days
Structure (SMILES): CCCCC[C@H](O)/C=C/[C@@H]1[C@@H](C/C=C\CCCC(=O)O)[C@@H](O)C[C@H]1O (relative stereo) [Polymorph I, racemic 9α,11α,15(S)-trihydroxy-5-cis,13-trans-prostadienoic acid]

long term storage stability (overall finding) [2]: superior long term storage stability
change after storage ([2]; after 14 days, open to air at 41 ± 2 °C): unchanged after 14 days
assay of crystalline racemate based on the natural compound ([2]; h.p.l.c., differential refractometer, based on natural PGF2α): 103 ± 3%
degraded ([2]; storage open to air): 3%
Structure (SMILES): CCCCC[C@H](O)/C=C/[C@@H]1[C@@H](C/C=C\CCCC(=O)O)[C@@H](O)C[C@H]1O (relative stereo) [Polymorph II, crystalline racemic 9α,11α,15(S)-trihydroxy-5-cis,13-trans-prostadienoic acid]
crystalline loss on storage ([1]; 25 °C, constant exposure to the air, after more than one year): without any evidence of crystalline loss after more than one year
assay by h.p.l.c. against fresh standards after storage [3]: within experimental error of fresh standards (±6%)

Structure (SMILES): CCCCC[C@H](O)/C=C/[C@@H]1[C@@H](C/C=C\CCCC(=O)O)[C@@H](O)C[C@H]1O [PGF2α, Natural 9α,11α,15(S)-trihydroxy-5-cis,13-trans-prostadienoic acid, reference compound]
identity of degradation products versus 15-epi-PGF2α [2]: Neither of the degradation products seen in the PGF2α sample stored 9 days at 41 °C corresponds to 15-epi-PGF2α
assay by h.p.l.c. against fresh standards after storage [3]: within experimental error of fresh standards (±6%)

measured half life of degradation by oxidation [2]: 17 days
Structure (SMILES): CCCCC[C@H](O)/C=C/[C@@H]1[C@@H](C/C=C\CCCC(=O)O)[C@@H](O)C[C@H]1O [oily PGF2α, reference compound]
course of degradation by oxidation [2]: degrades by oxidation rapidly at first suggestive of a surface reaction, and then more slowly
